Data as given in patent US10858340B2, “Crystal of salt of quinazoline derivative” (CHIA TAI TIANQING PHARMACEUTICAL GROUP CO., LTD., priority 2016, dated 2020).

Legend:
[1] = Stability test of crystal: long-term test; assay type: physicochemical; settings: 25° C. ± 2° C., relative humidity of 60% ± 10%
Experimental: (§1) The XRPD was measured using a PHASER BRUKER D2 X-ray powder diffractometer with a wavelength of 1.54060 Å. The melting point was measured using an YRT-3 melting point apparatus (manufactured by Tianjin University). The content was determined by HPLC with reference to Chinese Pharmacopoeia, 2010 edition, Part II, Appendix V D, using octadecylsilane bonded silica gel as a filler, and ammonium formate buffer solution and acetonitrile as a mobile phase; detection wavelength of 260 nm and column temperature of 40° C. The moisture content was determined using a METTLER TOLEDO DL31 Karl Fischer moisture analyzer.
(§2) The conditions and methods for the stability test of crystal were performed according to the requirements of the Chinese Pharmacopoeia (2010 edition), Part II, Appendix XIX C, Guidelines for Stability Tests of Active Pharmaceutical Ingredients and Pharmaceutical Preparations. The crystalline Form A prepared in Example 1 was used as a test sample. A medicinal low-density polyethylene bag was used as an inner package for a sample, and polyester/aluminum/polyethylene composite bag for pharmaceutical packaging was used as an outer packaging material for a sample.

[2] = Stability test of crystal: accelerated test; assay type: physicochemical; settings: 40° C. ± 2° C., relative humidity of 75% ± 5%
Experimental: as §1, §2

C=CC(=O)N1CCC(Nc2cc3c(Nc4ccc(F)c(Cl)c4)ncnc3cc2OC)CC1
Content of the crystalline Form A of the maleate of the compound of Formula (I) (HPLC) ([1]; 0 month): 99.4% | Moisture ([1]; 0 month): 0.17% | Content of the crystalline Form A of the maleate of the compound of Formula (I) (HPLC) ([1]; 3 months): 99.3% | Moisture ([1]; 3 months): 0.19% | Content of the crystalline Form A of the maleate of the compound of Formula (I) (HPLC) ([1]; 6 months): 99.4% | Moisture ([1]; 6 months): 0.20% | Content of the crystalline Form A of the maleate of the compound of Formula (I) (HPLC) ([1]; 9 months): 99.2% | Moisture ([1]; 9 months): 0.21% | Content of the crystalline Form A of the maleate of the compound of Formula (I) (HPLC) ([1]; 12 months): 99.4% | Moisture ([1]; 12 months): 0.22% | Content of the crystalline Form A of the maleate of the compound of Formula (I) (HPLC) ([1]; 18 months): 99.2% | Moisture ([1]; 18 months): 0.24% | Content of the crystalline Form A of the maleate of the compound of Formula (I) (HPLC) ([2]; 0 month): 99.4% | Moisture ([2]; 0 month): 0.17% | Content of the crystalline Form A of the maleate of the compound of Formula (I) (HPLC) ([2]; 1 month): 99.3% | Moisture ([2]; 1 month): 0.19% | Content of the crystalline Form A of the maleate of the compound of Formula (I) (HPLC) ([2]; 2 months): 99.2% | Moisture ([2]; 2 months): 0.18% | Content of the crystalline Form A of the maleate of the compound of Formula (I) (HPLC) ([2]; 3 months): 99.2% | Moisture ([2]; 3 months): 0.19% | Content of the crystalline Form A of the maleate of the compound of Formula (I) (HPLC) ([2]; 6 months): 99.3% | Moisture ([2]; 6 months): 0.20%
